Assay results from the OligoGym collection.
After the bases stand the sugars from the 5' end (letter, count) and the backbone: PS all phosphorothioate, else s phosphorothioate and o phosphodiester by linkage. Methylation of C is not given here. e = 2'-O-(2-methoxyethyl) (MOE); k = constrained ethyl (cEt); d = 2'-deoxy (DNA)

How the values were obtained:
KRAS = conditions: ASO
IRF5 = conditions: ASO, KARPAS-229, 4 µM

| Sequence | target mRNA inhibition (KRAS; A431, 2 µM) [%] | other results |
| --- | --- | --- |
| AAAAAAAAAATTAATG (sugars k3 d10 k3, PS) | 6 |  |
| AAAAAAAATTAATGTC (sugars k3 d10 k3, PS) | 14 |  |
| AAACAAATGCTAATAA (sugars k3 d10 k3, PS) | 9 |  |
| AAACGAGAATGGATAT (sugars k3 d10 k3, PS) | 12 |  |
| AAAGCTATTAGGAGTC (sugars k3 d10 k3, PS) | 65 |  |
| AAAGTTCACATAAAGG (sugars k3 d10 k3, PS) | 38 |  |
| AAATCTTATGGTTAGG (sugars k3 d10 k3, PS) | 34 |  |
| AAATTGTGCAATGGTG (sugars k3 d10 k3, PS) | 48 |  |
| AAGCTATTAGGAGTCT (sugars k3 d10 k3, PS) | 65 |  |
| AATCCATTTATGTGAC (sugars k3 d10 k3, PS) | 26 |  |
| AATTAATCCATTTATG (sugars k3 d10 k3, PS) | 16 |  |
| AATTACTTATGCAGAG (sugars k3 d10 k3, PS) | 44 |  |
| ACCAGTGTTAAGAGAA (sugars kkkddddddddkdkdk, PS) | 50 |  |
| ACCATTCAAAGTTCAC (sugars k3 d10 k3, PS) | 34 |  |
| ACCATTCAAAGTTCAC (sugars kdddddddddkekeke, PS) | 15 |  |
| ACCATTCAAAGTTCAC (sugars kkddddddddddkeke, PS) | 41 |  |
| ACCATTCAAAGTTCAC (sugars kkddddddddkekekk, PS) | 7 |  |
| ACCATTCAAAGTTCAC (sugars kkkddddddddkekek, PS) | 26 |  |
| ACTTATGCAGAGAAAA (sugars k3 d10 k3, PS) | 37 |  |
| ACTTCATTGTTTAAAA (sugars k3 d10 k3, PS) | 0 |  |
| AGACTTGAAAAGTGTT (sugars k3 d10 k3, PS) | 28 |  |
| AGATTGTGCTGAGCTT (sugars kdddddddddkekeke, PS) | 0 |  |
| AGATTGTGCTGAGCTT (sugars kkddddddddddkeke, PS) | 40 |  |
| AGGAGTCTTTATAGTA (sugars kkdddddddddkekek, PS) | 31 |  |

| Sequence | target mRNA inhibition (KRAS; A431, 2 µM) [%] | other results |
| --- | --- | --- |
| AGGTAAAAGCTAACAG (sugars k3 d10 k3, PS) | 41 | target mRNA inhibition (KRAS; A431, 0.037 µM): 46%; target mRNA inhibition (KRAS; NCI-H460, 0.037 µM): 37.3% |
| AGTCCAGTGATACTTT (sugars k3 d10 k3, PS) | 8 |  |
| AGTGATTAGGTCAAAT (sugars kddddddddddkekek, PS) | 21 |  |
| AGTGATTAGGTCAAAT (sugars kdddddddddkekeke, PS) | 12 |  |
| AGTGTGACTCAGTTAA (sugars kkddddddddkekekk, PS) | 47 |  |
| ATAATAGTTTCCATTG (sugars k3 d10 k3, PS) | 8 |  |
| ATAATGGTGAATATCT (sugars k3 d10 k3, PS) | 41 |  |
| ATCCAGTATTAACACA (sugars k3 d10 k3, PS) | 0 |  |
| ATCTTATGGTTAGGGG (sugars k3 d10 k3, PS) | 20 |  |
| ATGACTAATAGCAGTG (sugars k3 d10 k3, PS) | 49 |  |
| ATGGTGTAACATAGGT (sugars k3 d9 k3 e1, PS) | 47 |  |
| ATGGTTAGGGGAATTA (sugars k3 d10 k3, PS) | 33 |  |
| ATGTAAATATAGCCCC (sugars k3 d10 k3, PS) | 28 |  |
| ATTGTGCTGAGCTTGA (sugars k3 d10 k3, PS) | 51 |  |
| CAAAGTTCACATAAAG (sugars k3 d10 k3, PS) | 21 |  |
| CAGTGTGACTCAGTTA (sugars k3 d10 k3, PS) | 53 |  |
| CAGTGTTAAGAGAACT (sugars kkddddddddkekekk, PS) | 35 |  |
| CATTCAAAGTTCACAT (sugars kdddddddddkekeke, PS) | 24 |  |
| CATTCAAAGTTCACAT (sugars kkddddddddkekekk, PS) | 96 | target mRNA inhibition (KRAS; A431, 0.185 µM): 5%; target mRNA inhibition (KRAS; A431, 0.556 µM): 7%; target mRNA inhibition (KRAS; A431, 1.667 µM): 9%; target mRNA inhibition (KRAS; A431, 5 µM): 16% |
| CATTGTTTAAAAAAAA (sugars k3 d10 k3, PS) | 0 |  |
| CATTTATGTGACTAGA (sugars kddddddddddkekek, PS) | 24 |  |
| CCATTCAAAGTTCACA (sugars kkdddddddddkdkdk, PS) | 31 |  |
| CCATTCAAAGTTCACA (sugars kkddddddddkekekk, PS) | 57 | target mRNA inhibition (KRAS; A431, 0.185 µM): 0%; target mRNA inhibition (KRAS; A431, 0.556 µM): 19%; target mRNA inhibition (KRAS; A431, 1.667 µM): 31%; target mRNA inhibition (KRAS; A431, 5 µM): 39% |
| GTTCTTGGACTCTCAA (sugars kkddddddddkekekk, PS) |  | target mRNA inhibition (IRF5): 0% |
